According to patent US9833455B2, “Preparation and methods of use for ortho-aryl 5-membered heteroaryl-carboxamide containing multi-targeted kinase inhibitors” (Spacefill Enterprises LLC, priority 2011, dated 2017):

Key:
EPHA2 = EPHA2 (Homo sapiens, UniProt P29317); test: Nanosyn kinase profiling, % inhibition; assay type: biochemical; conditions: panel of 230 kinases
Protocol: (§1) “Inhibiting kinase activity” means to decrease the production of an phosphor-peptide by a particular kinase that can be separated by analytical techniques. For example, a comprehensive platform of kinase, protease, phosphatase and epigenetic assays that utilizes cutting-edge microfluidics and informatics tools to provide accurate and rapid results. Profiling data in this application were determined using these techniques at Nanosyn Inc. IC50 data were provided by Reaction Biology Inc using a P33 radiolabeled kinase assay.
(§2) A total of 15 new inhibitors were designed, prepared, and evaluated against a panel of 29 selected kinases in order to explore the applicability, SAR trends, and the tunability of this scaffold that could be imposed but this unique geometry, Table 21. Inhibitors I-1 to 1-12 all retained the 2-CF3-5-(4-F-phenyl) imidazole-4-carboxamide scaffold previously described (Deitrich, 2010), but explored different Hinge-Gatekeeper Motifs (HGM).
(§3) More modest activity for Aurora-A, FLT-1/4, KDR, KIT, PDGFRs was accompanied by better activity for B-Raf mutant and wild-type forms, Modest inhibition of MEK-1, BTK, c-Met, RET, and RON was also observed. […] Moreover, the observed inhibition of MEK-1 with 1-12 and TYK2 with I-6 represents additional activities against kinases for which no type-II inhibitors have been reported to date. […] To further evaluate the scope of inhibition, I-6 was evaluated against a larger panel of 230 kinases, Table-22.

KIT = KIT (Homo sapiens, UniProt P10721); test: Nanosyn kinase profiling, % inhibition; assay type: biochemical; conditions: panel of 230 kinases
Protocol: as §1, §2, §3

BRAF = target: T1, BRAF (Homo sapiens, UniProt P15056); test: Nanosyn kinase profiling, % inhibition; assay type: biochemical; conditions: panel of 230 kinases
T1 construct: literature Ambit Biosciences
Protocol: as §1, §2, §3

FLT3 = FLT3 (Homo sapiens, UniProt P36888); test: Nanosyn kinase profiling, % inhibition; assay type: biochemical; conditions: panel of 230 kinases
Protocol: as §1, §2, §3

TYK2 = TYK2 (Homo sapiens, UniProt P29597); test: Nanosyn kinase profiling, % inhibition; assay type: biochemical; conditions: panel of 230 kinases
Chain of TYK2 (P29597 whole entry): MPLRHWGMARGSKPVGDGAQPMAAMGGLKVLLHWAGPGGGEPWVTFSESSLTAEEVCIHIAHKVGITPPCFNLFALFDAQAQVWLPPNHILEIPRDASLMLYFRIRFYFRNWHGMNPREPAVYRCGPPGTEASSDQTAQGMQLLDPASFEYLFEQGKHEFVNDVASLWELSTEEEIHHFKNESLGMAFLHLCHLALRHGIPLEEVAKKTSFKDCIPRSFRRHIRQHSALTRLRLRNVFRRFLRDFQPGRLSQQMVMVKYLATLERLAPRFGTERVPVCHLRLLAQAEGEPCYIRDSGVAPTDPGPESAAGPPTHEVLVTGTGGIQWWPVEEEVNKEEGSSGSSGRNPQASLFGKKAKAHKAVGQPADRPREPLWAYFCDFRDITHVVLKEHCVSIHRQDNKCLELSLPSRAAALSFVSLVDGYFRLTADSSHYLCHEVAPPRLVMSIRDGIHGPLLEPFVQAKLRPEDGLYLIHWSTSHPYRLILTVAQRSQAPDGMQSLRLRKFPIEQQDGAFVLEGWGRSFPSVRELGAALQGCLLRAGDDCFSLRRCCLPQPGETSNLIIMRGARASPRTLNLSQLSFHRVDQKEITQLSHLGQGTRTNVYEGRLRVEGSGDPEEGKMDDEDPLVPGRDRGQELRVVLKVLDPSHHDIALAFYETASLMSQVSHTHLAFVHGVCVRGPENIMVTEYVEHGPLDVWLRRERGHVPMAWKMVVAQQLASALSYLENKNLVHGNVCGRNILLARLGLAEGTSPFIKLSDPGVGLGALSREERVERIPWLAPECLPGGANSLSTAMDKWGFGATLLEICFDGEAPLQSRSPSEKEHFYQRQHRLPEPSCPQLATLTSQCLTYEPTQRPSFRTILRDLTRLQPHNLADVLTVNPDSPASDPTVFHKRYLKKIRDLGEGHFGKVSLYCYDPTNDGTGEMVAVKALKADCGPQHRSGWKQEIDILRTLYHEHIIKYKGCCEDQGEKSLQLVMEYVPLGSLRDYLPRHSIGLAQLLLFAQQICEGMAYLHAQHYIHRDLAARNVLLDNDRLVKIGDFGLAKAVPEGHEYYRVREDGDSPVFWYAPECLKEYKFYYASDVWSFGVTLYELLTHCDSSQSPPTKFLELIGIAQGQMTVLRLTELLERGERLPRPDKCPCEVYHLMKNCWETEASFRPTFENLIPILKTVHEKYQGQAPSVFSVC
Protocol: as §1, §2, §3

FMS = FMS (Homo sapiens, UniProt P07333); test: Nanosyn kinase profiling, % inhibition; assay type: biochemical; conditions: panel of 230 kinases
Protocol: as §1, §2, §3

DDR2 = target: T2, DDR2 (Homo sapiens, UniProt Q16832); test: Nanosyn kinase profiling, % inhibition; assay type: biochemical; conditions: panel of 230 kinases
T2 sequence (Q16832 22-855): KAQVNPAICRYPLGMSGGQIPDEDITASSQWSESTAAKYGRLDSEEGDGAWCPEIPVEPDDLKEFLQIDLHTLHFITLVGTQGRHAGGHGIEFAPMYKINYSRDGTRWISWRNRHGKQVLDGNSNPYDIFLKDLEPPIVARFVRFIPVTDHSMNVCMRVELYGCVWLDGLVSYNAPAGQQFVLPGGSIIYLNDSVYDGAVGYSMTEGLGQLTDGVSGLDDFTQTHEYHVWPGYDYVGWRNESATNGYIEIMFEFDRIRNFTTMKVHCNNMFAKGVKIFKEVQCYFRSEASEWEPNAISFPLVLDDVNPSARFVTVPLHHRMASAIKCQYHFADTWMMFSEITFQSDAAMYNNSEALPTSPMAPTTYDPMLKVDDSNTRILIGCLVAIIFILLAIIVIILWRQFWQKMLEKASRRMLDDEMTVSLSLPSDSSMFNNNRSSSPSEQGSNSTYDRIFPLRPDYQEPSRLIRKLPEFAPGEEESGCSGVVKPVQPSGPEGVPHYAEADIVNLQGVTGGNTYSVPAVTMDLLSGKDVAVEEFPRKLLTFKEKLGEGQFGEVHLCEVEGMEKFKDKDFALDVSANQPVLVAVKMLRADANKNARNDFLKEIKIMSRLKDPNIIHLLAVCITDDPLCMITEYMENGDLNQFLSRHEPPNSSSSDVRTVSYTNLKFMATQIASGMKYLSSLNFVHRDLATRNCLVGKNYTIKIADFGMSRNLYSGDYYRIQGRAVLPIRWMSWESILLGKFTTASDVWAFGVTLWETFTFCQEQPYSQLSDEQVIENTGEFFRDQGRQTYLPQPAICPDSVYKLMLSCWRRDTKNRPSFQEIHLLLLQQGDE
Protocol: as §1, §2, §3

RET = RET (Homo sapiens, UniProt P07949); test: Nanosyn kinase profiling, % inhibition; assay type: biochemical; conditions: panel of 230 kinases
Protocol: as §1, §2, §3

KDR = KDR (Homo sapiens, UniProt P35968); test: Nanosyn kinase profiling, % inhibition; assay type: biochemical; conditions: panel of 230 kinases
Protocol: as §1, §2, §3

TIE2 = TIE2 (Homo sapiens, UniProt Q02763); test: Nanosyn kinase profiling, % inhibition; assay type: biochemical; conditions: panel of 230 kinases
Protocol: as §1, §2, §3

CRAF = CRAF (Homo sapiens, UniProt P04049); test: Nanosyn kinase profiling, % inhibition; assay type: biochemical; conditions: panel of 230 kinases
Chain of CRAF (P04049 whole entry): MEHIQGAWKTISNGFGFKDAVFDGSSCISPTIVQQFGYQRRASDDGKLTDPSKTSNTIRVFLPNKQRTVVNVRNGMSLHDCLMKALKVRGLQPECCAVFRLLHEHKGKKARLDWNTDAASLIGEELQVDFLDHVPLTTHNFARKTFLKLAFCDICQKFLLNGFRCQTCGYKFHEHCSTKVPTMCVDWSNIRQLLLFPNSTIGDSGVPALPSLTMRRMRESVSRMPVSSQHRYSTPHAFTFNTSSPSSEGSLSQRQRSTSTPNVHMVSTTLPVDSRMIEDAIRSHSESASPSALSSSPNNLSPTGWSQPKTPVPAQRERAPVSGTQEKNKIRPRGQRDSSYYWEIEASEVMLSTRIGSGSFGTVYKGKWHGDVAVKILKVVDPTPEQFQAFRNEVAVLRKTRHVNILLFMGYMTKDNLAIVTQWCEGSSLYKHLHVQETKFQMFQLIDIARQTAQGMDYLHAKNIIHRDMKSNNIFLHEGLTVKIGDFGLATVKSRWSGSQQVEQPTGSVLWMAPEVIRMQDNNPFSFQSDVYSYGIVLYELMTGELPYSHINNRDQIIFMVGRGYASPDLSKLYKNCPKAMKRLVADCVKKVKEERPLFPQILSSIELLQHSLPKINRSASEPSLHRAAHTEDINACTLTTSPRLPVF
Protocol: as §1, §2, §3

FLT1 = FLT1 (Homo sapiens, UniProt P17948); test: Nanosyn kinase profiling, % inhibition; assay type: biochemical; conditions: panel of 230 kinases
Chain of FLT1 (P17948 27-1338): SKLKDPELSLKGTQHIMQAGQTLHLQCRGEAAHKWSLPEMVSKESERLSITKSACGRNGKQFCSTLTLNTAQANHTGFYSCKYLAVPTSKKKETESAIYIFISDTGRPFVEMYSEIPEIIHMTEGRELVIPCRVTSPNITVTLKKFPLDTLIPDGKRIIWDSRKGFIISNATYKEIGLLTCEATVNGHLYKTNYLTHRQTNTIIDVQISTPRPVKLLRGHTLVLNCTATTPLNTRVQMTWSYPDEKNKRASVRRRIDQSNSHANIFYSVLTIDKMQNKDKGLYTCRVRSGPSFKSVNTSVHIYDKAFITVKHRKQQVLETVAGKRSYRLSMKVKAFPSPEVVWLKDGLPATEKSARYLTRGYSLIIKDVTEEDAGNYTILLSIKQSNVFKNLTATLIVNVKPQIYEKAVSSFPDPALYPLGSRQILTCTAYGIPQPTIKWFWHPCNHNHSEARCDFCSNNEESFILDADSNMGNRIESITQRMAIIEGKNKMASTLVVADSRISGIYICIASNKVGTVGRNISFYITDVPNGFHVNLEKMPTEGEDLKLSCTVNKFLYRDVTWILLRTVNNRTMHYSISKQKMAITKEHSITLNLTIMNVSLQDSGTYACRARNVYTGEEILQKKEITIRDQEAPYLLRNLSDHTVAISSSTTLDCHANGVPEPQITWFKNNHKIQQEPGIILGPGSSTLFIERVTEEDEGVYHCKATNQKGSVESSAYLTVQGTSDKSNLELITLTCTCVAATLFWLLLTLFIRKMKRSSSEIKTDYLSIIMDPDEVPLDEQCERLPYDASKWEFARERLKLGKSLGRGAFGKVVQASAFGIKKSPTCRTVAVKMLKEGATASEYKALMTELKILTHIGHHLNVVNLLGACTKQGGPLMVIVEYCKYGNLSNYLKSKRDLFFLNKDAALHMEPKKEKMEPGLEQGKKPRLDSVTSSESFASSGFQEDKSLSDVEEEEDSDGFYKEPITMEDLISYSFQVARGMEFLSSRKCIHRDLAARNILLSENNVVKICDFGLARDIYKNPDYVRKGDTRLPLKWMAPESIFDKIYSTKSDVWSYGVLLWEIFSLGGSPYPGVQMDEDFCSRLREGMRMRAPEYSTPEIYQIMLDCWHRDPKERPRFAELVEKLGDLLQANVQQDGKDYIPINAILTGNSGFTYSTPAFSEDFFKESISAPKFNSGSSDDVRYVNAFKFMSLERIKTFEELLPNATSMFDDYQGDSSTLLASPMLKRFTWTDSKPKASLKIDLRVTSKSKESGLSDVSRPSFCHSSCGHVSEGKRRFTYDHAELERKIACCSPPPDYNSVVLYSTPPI
Protocol: as §1, §2, §3

BMPR2 = target: T3, BMPR2 (Homo sapiens, UniProt Q13873); conditions: 1 μM, duplicate, without preincubation; cited from earlier work
T3 construct: literature Ambit Biosciences
T3 sequence (Q13873 27-1038): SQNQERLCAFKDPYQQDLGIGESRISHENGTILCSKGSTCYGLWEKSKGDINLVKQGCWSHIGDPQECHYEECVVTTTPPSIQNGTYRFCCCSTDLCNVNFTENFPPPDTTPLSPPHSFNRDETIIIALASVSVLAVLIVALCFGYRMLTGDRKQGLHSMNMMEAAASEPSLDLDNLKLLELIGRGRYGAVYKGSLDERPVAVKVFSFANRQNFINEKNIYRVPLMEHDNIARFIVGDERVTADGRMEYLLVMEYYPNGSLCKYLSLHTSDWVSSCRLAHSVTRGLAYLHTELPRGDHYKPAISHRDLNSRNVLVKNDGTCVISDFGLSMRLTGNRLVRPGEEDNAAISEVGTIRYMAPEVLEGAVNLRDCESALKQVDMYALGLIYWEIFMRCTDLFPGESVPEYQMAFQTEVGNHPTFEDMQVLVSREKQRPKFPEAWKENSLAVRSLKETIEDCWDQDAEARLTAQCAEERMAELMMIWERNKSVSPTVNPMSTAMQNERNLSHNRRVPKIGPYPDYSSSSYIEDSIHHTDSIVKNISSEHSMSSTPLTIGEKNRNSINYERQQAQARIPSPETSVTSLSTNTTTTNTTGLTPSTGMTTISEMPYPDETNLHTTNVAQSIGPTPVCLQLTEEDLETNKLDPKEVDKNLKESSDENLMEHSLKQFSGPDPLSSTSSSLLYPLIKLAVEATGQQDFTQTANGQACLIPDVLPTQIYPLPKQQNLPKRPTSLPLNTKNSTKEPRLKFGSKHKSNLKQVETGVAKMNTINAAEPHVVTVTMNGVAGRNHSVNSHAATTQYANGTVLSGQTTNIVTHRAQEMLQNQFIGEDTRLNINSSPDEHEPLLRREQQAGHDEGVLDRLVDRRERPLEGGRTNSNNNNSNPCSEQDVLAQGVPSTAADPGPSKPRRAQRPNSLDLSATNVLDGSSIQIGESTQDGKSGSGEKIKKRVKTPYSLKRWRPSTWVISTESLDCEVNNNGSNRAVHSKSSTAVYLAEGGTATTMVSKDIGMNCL

Chain of EPHA2 (P29317 24-976): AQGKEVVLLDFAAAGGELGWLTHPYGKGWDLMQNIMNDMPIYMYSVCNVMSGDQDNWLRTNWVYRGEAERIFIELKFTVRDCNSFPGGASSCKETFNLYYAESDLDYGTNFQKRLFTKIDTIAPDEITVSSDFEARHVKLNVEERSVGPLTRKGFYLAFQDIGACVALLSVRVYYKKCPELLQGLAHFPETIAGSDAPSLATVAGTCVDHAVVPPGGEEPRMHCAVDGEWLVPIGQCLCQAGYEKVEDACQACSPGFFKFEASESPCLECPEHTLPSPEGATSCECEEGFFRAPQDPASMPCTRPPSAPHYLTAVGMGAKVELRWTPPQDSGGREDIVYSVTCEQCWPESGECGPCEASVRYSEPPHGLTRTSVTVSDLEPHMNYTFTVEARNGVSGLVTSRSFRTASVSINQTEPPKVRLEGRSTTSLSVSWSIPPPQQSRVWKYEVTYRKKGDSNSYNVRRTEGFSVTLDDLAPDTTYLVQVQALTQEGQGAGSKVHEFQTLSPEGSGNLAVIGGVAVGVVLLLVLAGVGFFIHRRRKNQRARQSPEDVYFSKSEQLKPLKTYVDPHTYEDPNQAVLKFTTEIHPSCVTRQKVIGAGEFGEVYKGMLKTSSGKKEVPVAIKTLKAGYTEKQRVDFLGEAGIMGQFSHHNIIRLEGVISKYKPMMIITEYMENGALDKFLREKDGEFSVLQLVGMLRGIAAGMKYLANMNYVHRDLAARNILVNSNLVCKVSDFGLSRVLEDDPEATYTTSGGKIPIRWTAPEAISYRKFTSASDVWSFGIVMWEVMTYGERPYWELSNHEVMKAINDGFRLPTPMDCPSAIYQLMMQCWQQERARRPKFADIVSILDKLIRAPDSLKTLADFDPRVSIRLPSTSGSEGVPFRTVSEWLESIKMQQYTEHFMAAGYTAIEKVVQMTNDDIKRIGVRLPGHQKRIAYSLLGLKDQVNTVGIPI

Row | SMILES | inhibition at 5 µM (EPHA2) [%] | inhibition at 5 µM (KIT) [%] | inhibition at 5 µM (BRAF) [%] | inhibition at 5 µM (FLT3) [%] | inhibition at 5 µM (TYK2) [%] | inhibition at 5 µM (FMS) [%] | inhibition at 5 µM (DDR2) [%] | inhibition at 5 µM (RET) [%] | inhibition at 5 µM (KDR) [%] | inhibition at 5 µM (TIE2) [%] | inhibition at 5 µM (CRAF) [%] | inhibition at 5 µM (FLT1) [%] | inhibition of BMPR2 (BMPR2)
1 | CNC(=O)c1cc(Oc2ccc(NC(=O)c3nc(C(F)(F)F)[nH]c3-c3ccc(F)cc3)cc2)ccn1 [Inhibitor I-6, 4-(4-{[5-(4-Fluoro-phenyl)-2-trifluoromethyl-3H-imidazole-4-carbonyl]-amino}-phenoxy)-pyridine-2-carboxylic acid methylamide] | ≥ 50 | ≥ 50 | ≥ 50 | ≥ 50 | ≥ 50 | ≥ 50 | ≥ 50 | ≥ 50 | ≥ 50 | ≥ 50 | ≥ 50 | ≥ 50 | –
2 | Cc1ccc(-c2nc(C(F)(F)F)[nH]c2C(=O)Nc2ccc(C)c(Nc3ccc4ncn(C)c(=O)c4c3)c2)cc1F [KIN-038] | – | – | – | – | – | – | – | – | – | – | – | – | X (X > 25% @ 1 μM)
